Measurements: PMC10141580, “Cyclic Dichalcogenides Extend the Reach of Bioreductive Prodrugs to Harness Thiol/Disulfide Oxidoreductases: Applications to seco-Duocarmycins Targeting the Thioredoxin System” (ACS Central Science, 2023)
“And” between values parts separate entries of the source, which are not always exact repeats. Equal values may be shown once. Read-outs that look alike come from different tables or passages of the source.

Test system: panel of 140 standard cancer cell lines
Assay: ProliFiler-140 cancer cell line screen (CellTiterGlo, 72 h)
Type: cell-based
Protocol: Incubations were performed for 72 h before automated viability readout with CellTiterGlo (Figure 8).
End of Figure S11 (part 5 of 5): ProliFiler-140 cancer cell line screening for cytotoxicity of the prodrugs.
8-data-point dose response curves from CellTiter-Glo® viability readout.
ProliFiler-140 cell line panel part V

With `COc1cc2cc(C(=O)N3C[C@@H](CCl)c4c3cc(OC(=O)N(CCC(=O)N3CCN(C)CC3)[C@H]3CCSSC3)c3ccccc43)[nH]c2c(OC)c1OC` [P-SS60-CBI-TMI] the “Reductive Activation Index” value (MKN-1 (Stomach)) was 7.3, the IC50 (MKN-1 (Stomach), read-out: IC50 [M] (ProliFiler-140)) was 2.1e-07 M and the “Reductive Activation Index” value (MKN-45 (Stomach)) was 5.36. The IC50 (MKN-45 (Stomach), read-out: IC50 [M] (ProliFiler-140)) was 9.08e-08 M and 9.1e-08 M, the IC50 (MOLM-13 (Blood), read-out: IC50 [M] (ProliFiler-140)) was 9.1e-09 M and 9.12e-09 M and the IC50 (MOLT-4 (Blood), read-out: IC50 [M] (ProliFiler-140)) was 1.3e-08 M and 1.29e-08 M. For the same molecule, the IC50 (MOLT-4, read-out: IC50) was 1.3e-08 M, the IC50 (MV4-11 (Blood), read-out: IC50 [M] (ProliFiler-140)) was 2.8e-09 M and 2.76e-09 M and the “Reductive Activation Index” value (Mia PaCA 2 (Pancreas)) was 5.48. For the same molecule, the IC50 (Mia PaCA 2 (Pancreas), read-out: IC50 [M] (ProliFiler-140)) was 6.84e-08 M and 6.8e-08 M, the “Reductive Activation Index” value (NALM-6 (Blood)) was 5.7 and the IC50 (NALM-6 (Blood), read-out: IC50 [M] (ProliFiler-140)) was 9.79e-09 M and 9.8e-09 M. For the same molecule, the “Reductive Activation Index” value (NCI-H82 (Lung)) was 5.0, the IC50 (NCI-H82 (Lung), read-out: IC50 [M] (ProliFiler-140)) was 1.5e-07 M and 1.49e-07 M and the IC50 (NCI-H292 (Lung), read-out: IC50 [M] (ProliFiler-140)) was 4.8e-08 M and 4.84e-08 M. For the same molecule, the “Reductive Activation Index” value (NCI-H441 (Lung)) was 5.40, the IC50 (NCI-H441 (Lung), read-out: IC50 [M] (ProliFiler-140)) was 5.44e-08 M and 5.4e-08 M and the “Reductive Activation Index” value (NCI-H838 (Lung)) was 6.2. The IC50 (NCI-H838 (Lung), read-out: IC50 [M] (ProliFiler-140)) was 1.2e-07 M and 1.21e-07 M, the “Reductive Activation Index” value (NCI-H1048 (Lung)) was 7.4 and the IC50 (NCI-H1048 (Lung), read-out: IC50 [M] (ProliFiler-140)) was 8e-09 M and 8.01e-09 M. The IC50 (NCI-H1437 (Lung), read-out: IC50 [M] (ProliFiler-140)) was 5.21e-08 M and 5.2e-08 M, the “Reductive Activation Index” value (NCI-H1563 (Lung)) was 8.6 and the IC50 (NCI-H1563 (Lung), read-out: IC50 [M] (ProliFiler-140)) was 2e-07 M and 1.97e-07 M. The “Reductive Activation Index” value (NCI-H1573 (Lung)) was 6.1, the IC50 (NCI-H1573 (Lung), read-out: IC50 [M] (ProliFiler-140)) was 1.8e-07 M and 1.76e-07 M and the IC50 (NCI-H1581 (Lung), read-out: IC50 [M] (ProliFiler-140)) was 4.23e-08 M and 4.2e-08 M. The “Reductive Activation Index” value (NCI-H1703 (Lung)) was 6.7, the IC50 (NCI-H1703 (Lung), read-out: IC50 [M] (ProliFiler-140)) was 1.2e-07 M and 1.21e-07 M and the “Reductive Activation Index” value (NCI-H1838 (Lung)) was 9.6. The IC50 (NCI-H1838 (Lung), read-out: IC50 [M] (ProliFiler-140)) was 8.5e-08 M and 8.53e-08 M, the IC50 (NCI-H2009 (Lung), read-out: IC50 [M] (ProliFiler-140)) was 6.17e-08 M and 6.2e-08 M and the IC50 (NCI-H2110 (Lung), read-out: IC50 [M] (ProliFiler-140)) was 2.7e-08 M and 2.67e-08 M. The IC50 (NCI-H2286 (Lung), read-out: IC50 [M] (ProliFiler-140)) was 1.9e-08 M and 1.91e-08 M, the “Reductive Activation Index” value (NCI-N87 (Stomach)) was 8.1 and the IC50 (NCI-N87 (Stomach), read-out: IC50 [M] (ProliFiler-140)) was 1.4e-07 M and 1.41e-07 M. For the same molecule, the IC50 (OCI-AML3 (Blood), read-out: IC50 [M] (ProliFiler-140)) was 3.3e-08 M and 3.29e-08 M, the “Reductive Activation Index” value (OCI-AML5 (Blood)) was 3.9 and 3.93 and the IC50 (OCI-AML5 (Blood), read-out: IC50 [M] (ProliFiler-140)) was 8.6e-09 M and 8.62e-09 M. The “Reductive Activation Index” value (OCI-LY19 (Blood)) was 3.74, the IC50 (OCI-LY19 (Blood), read-out: IC50 [M] (ProliFiler-140)) was 4.11e-09 M and 4.1e-09 M and the “Reductive Activation Index” value (OPM-2 (Blood)) was 5.41. The IC50 (OPM-2 (Blood), read-out: IC50 [M] (ProliFiler-140)) was 1.22e-07 M and 1.2e-07 M, the “Reductive Activation Index” value (OV56 (Ovary)) was 3.10 and the IC50 (OV56 (Ovary), read-out: IC50 [M] (ProliFiler-140)) was 6.51e-08 M and 6.5e-08 M. For the same molecule, the “Reductive Activation Index” value (OVCAR-3 (Ovary)) was 8.7, the IC50 (OVCAR-3 (Ovary), read-out: IC50 [M] (ProliFiler-140)) was 1.2e-07 M and 1.17e-07 M and the IC50 (OVCAR-3, read-out: IC50) was 1.2e-07 M. For the same molecule, the “Reductive Activation Index” value (OVK18 (Ovary)) was 4.66, the IC50 (OVK18 (Ovary), read-out: IC50 [M] (ProliFiler-140)) was 4.29e-08 M and 4.3e-08 M and the IC50 (P31/FUJ (Blood), read-out: IC50 [M] (ProliFiler-140)) was 3.7e-08 M and 3.66e-08 M. For the same molecule, the “Reductive Activation Index” value (PANC-1 (Pancreas)) was 5.4, the IC50 (PANC-1 (Pancreas), read-out: IC50 [M] (ProliFiler-140)) was 2.5e-07 M and 2.53e-07 M and the IC50 (PC3 (Prostate), read-out: IC50 [M] (ProliFiler-140)) was 5.8e-08 M. For the same molecule, the IC50 (PC3, read-out: IC50) was 5.8e-08 M, the IC50 (PC-9 (Lung), read-out: IC50 [M] (ProliFiler-140)) was 1.7e-08 M and the “Reductive Activation Index” value (RERF-LC-Ad2 (Lung)) was 4.2 and 4.21. The IC50 (RERF-LC-Ad2 (Lung), read-out: IC50 [M] (ProliFiler-140)) was 1.9e-07 M and 1.86e-07 M, the IC50 (RERF-LC-MS (Lung), read-out: IC50 [M] (ProliFiler-140)) was 6.44e-08 M and 6.4e-08 M and the IC50 (RKO (Colon), read-out: IC50 [M] (ProliFiler-140)) was 4.51e-08 M and 4.5e-08 M. The “Reductive Activation Index” value (RL95-2 (Endometrium)) was 4.84, the IC50 (RL95-2 (Endometrium), read-out: IC50 [M] (ProliFiler-140)) was 1.54e-07 M and 1.5e-07 M and the IC50 (RPMI 8226 (Blood), read-out: IC50 [M] (ProliFiler-140)) was 3.86e-08 M and 3.9e-08 M. For the same molecule, the IC50 (RPMI 8226, read-out: IC50) was 3.9e-08 M, the IC50 (SCH (Stomach), read-out: IC50 [M] (ProliFiler-140)) was 5.2e-08 M and 5.16e-08 M and the “Reductive Activation Index” value (SCLC-21H (Lung)) was 4.91. For the same molecule, the IC50 (SCLC-21H (Lung), read-out: IC50 [M] (ProliFiler-140)) was 3.21e-08 M and 3.2e-08 M, the “Reductive Activation Index” value (SJSA-1 (Bone)) was 15.99 and the IC50 (SJSA-1 (Bone), read-out: IC50 [M] (ProliFiler-140)) was 2.37e-08 M and 2.4e-08 M. The IC50 (SK-BR-3 (Breast), read-out: IC50 [M] (ProliFiler-140)) was 7.4e-08 M and 7.39e-08 M, the IC50 (SK-ES-1 (Bone), read-out: IC50 [M] (ProliFiler-140)) was 5.66e-09 M and 5.7e-09 M and the IC50 (SK-LU-1 (Lung), read-out: IC50 [M] (ProliFiler-140)) was 2.7e-08 M. The “Reductive Activation Index” value (SK-MEL-3 (Skin)) was 5.8, the IC50 (SK-MEL-3 (Skin), read-out: IC50 [M] (ProliFiler-140)) was 1.8e-07 M and 1.77e-07 M and the “Reductive Activation Index” value (SK-N-FI (Brain)) was 5.68. For the same molecule, the IC50 (SK-N-FI (Brain), read-out: IC50 [M] (ProliFiler-140)) was 1.2e-07 M, the IC50 (SK-N-MC (Brain), read-out: IC50 [M] (ProliFiler-140)) was 2.7e-09 M and the “Reductive Activation Index” value (SK-N-SH (Brain)) was 5.1 and 5.09. The IC50 (SK-N-SH (Brain), read-out: IC50 [M] (ProliFiler-140)) was 1.5e-07 M and 1.46e-07 M, the IC50 (SK-OV3 (Ovary), read-out: IC50 [M] (ProliFiler-140)) was 6.17e-08 M and 6.2e-08 M and the IC50 (SK-OV3, read-out: IC50) was 6.2e-08 M. For the same molecule, the “Reductive Activation Index” value (SNU840 (Ovary)) was 1.83, the IC50 (SNU840 (Ovary), read-out: IC50 [M] (ProliFiler-140)) was 3.82e-08 M and 3.8e-08 M and the IC50 (SNU-1 (Stomach), read-out: IC50 [M] (ProliFiler-140)) was 3e-08 M. The IC50 (SNU-16 (Stomach), read-out: IC50 [M] (ProliFiler-140)) was 1.23e-07 M and 1.2e-07 M, the “Reductive Activation Index” value (SNU-216 (Stomach)) was 6.77 and 6.8 and the IC50 (SNU-216 (Stomach), read-out: IC50 [M] (ProliFiler-140)) was 2.72e-07 M and 2.7e-07 M. For the same molecule, the “Reductive Activation Index” value (SU-DHL-5 (Blood)) was 6.4, the IC50 (SU-DHL-5 (Blood), read-out: IC50 [M] (ProliFiler-140)) was 7.8e-09 M and 7.78e-09 M and the “Reductive Activation Index” value (SW480 (Colon)) was 5.10. For the same molecule, the IC50 (SW480 (Colon), read-out: IC50 [M] (ProliFiler-140)) was 6.5e-08 M, the “Reductive Activation Index” value (SW620 (Colon)) was 5.01 and the IC50 (SW620 (Colon), read-out: IC50 [M] (ProliFiler-140)) was 1.4e-07 M. The IC50 (SW620, read-out: IC50) was 1.4e-07 M, the “Reductive Activation Index” value (SW948 (Colon)) was 5.26 and the IC50 (SW948 (Colon), read-out: IC50 [M] (ProliFiler-140)) was 1.29e-07 M and 1.3e-07 M. For the same molecule, the IC50 (SW-1783 (Brain), read-out: IC50 [M] (ProliFiler-140)) was 6.68e-08 M and 6.7e-08 M, the “Reductive Activation Index” value (Saos-2 EC (Bone)) was 6.02 and the IC50 (Saos-2 EC (Bone), read-out: IC50 [M] (ProliFiler-140)) was 3.88e-08 M and 3.9e-08 M. The “Reductive Activation Index” value (SiHa (Ovary)) was 5.51, the IC50 (SiHa (Ovary), read-out: IC50 [M] (ProliFiler-140)) was 1.11e-07 M and 1.1e-07 M and the “Reductive Activation Index” value (T84 (Colon)) was 5.12 and 5.1. The IC50 (T84 (Colon), read-out: IC50 [M] (ProliFiler-140)) was 1.77e-07 M and 1.8e-07 M, the IC50 (T98G (Brain), read-out: IC50 [M] (ProliFiler-140)) was 8.64e-08 M and 8.6e-08 M and the “Reductive Activation Index” value (T-47D (Breast)) was 4.5. For the same molecule, the IC50 (T-47D (Breast), read-out: IC50 [M] (ProliFiler-140)) was 2.3e-07 M and 2.31e-07 M, the IC50 (T-47D, read-out: IC50) was 2.3e-07 M and the “Reductive Activation Index” value (U2OS (Bone)) was 5.36. For the same molecule, the IC50 (U2OS (Bone), read-out: IC50 [M] (ProliFiler-140)) was 2.44e-08 M and 2.4e-08 M, the “Reductive Activation Index” value (U87MG (Brain)) was 5.4 and the IC50 (U87MG (Brain), read-out: IC50 [M] (ProliFiler-140)) was 2.3e-07 M and 2.25e-07 M. The “Reductive Activation Index” value (U118MG (Brain)) was 2.81, the IC50 (U118MG (Brain), read-out: IC50 [M] (ProliFiler-140)) was 1.4e-07 M and the “Reductive Activation Index” value (U251MG (Brain)) was 11. The IC50 (U251MG (Brain), read-out: IC50 [M] (ProliFiler-140)) was 1.9e-07 M and 1.88e-07 M, the IC50 (U-266 (Blood), read-out: IC50 [M] (ProliFiler-140)) was 2.23e-08 M and 2.2e-08 M and the “Reductive Activation Index” value (U-937 (Blood)) was 4.50. The IC50 (U-937 (Blood), read-out: IC50 [M] (ProliFiler-140)) was 1.64e-08 M and 1.6e-08 M, the “Reductive Activation Index” value (ZR-75-1 (Breast)) was 6.4 and the IC50 (ZR-75-1 (Breast), read-out: IC50 [M] (ProliFiler-140)) was 2.22e-07 M and 2.2e-07 M. For the same molecule, the IC50 (read-out: IC50 [M] (ProliFiler-140)) was 1.74e-08 M and 1.7e-08 M.
